Laboratory results taken from patent US11203598B2, “Compounds for repressing cancer cell growth” (Institute For Cancer Research, priority 2018, dated 2021).

What was measured:
[1] = target: T1, R175H p53 mutant in HCT116 p53 R175H cells (Homo sapiens, UniProt P04637, R175H); test: Western blot of mutant p53; assay type: cell-based
T1 construct: V5 (only from the vector name pLenti6/V5); host or cells: HCT116 p53-/- cells, lentivirus infection, blasticidin-selected pooled clones
Experimental: HCT116 p53^−/− cells (previously obtained from the Vogelstein Laboratory, Johns Hopkins University) were infected with a lentivirus vector containing the p53 R175H mutant (pLenti6/V5-p53_R175H, Addgene). Cells were selected with blasticidin (8 μg/mL) containing media cultured for 10 days. Blasticidin-resistant clones (pooled clones) were screened for expression of the p53 R175H mutation by Western blot analysis with p53 DO-1 antibody.
After treatment, cells were harvested by trypsinization, washed with PBS, and lysed with RIPA buffer (Sigma-Aldrich) for 30 minutes to 1 hour at 4° C. Protein lysates were spun down and supernatant was collected. Protein quantification was performed using a Pierce™ BCA Protein Assay Kit (Thermo Fisher Scientific). 1×NuPAGE® LDS sample buffer (Thermo Fisher Scientific) and 2-Mercaptoethanol as the reducing agent (Sigma-Aldrich) were added to protein lysates, followed by boiling for 15 minutes at 95° C. Equal total protein amounts samples were loaded into NuPAGE™ Novex™ 4-12% Bis-Tris Protein Gels (1.5 mm, Thermo Fisher Scientific) and gel eletrophoresis was performed with NuPAGE™ MES SDS Running Buffer. Proteins were transferred onto an Immobilon-P membrane (PVDF, EMD Millipore) using a Bio-Rad system with a 10% Tris-Glycine and 10% methanol transfer buffer diluted in distilled and deionized water. After transfer, membranes were blocked with 10% milk in TBST solution and then incubated overnight with primary antibody, washed with TBST and incubated with secondary antibody for 1 hour. Incubations were performed in 5% milk in TBST solution. Signal was detected by using a chemiluminescent detection kit, followed by autoradiography. The following antibodies were used: p53 (DO-1, 1:1000, Santa Cruz), p73 (1:1000, Bethyl Laboratories), p21 and NOXA (1:250, EMD Millipore), DR5, FADD, cleaved caspase 3, cleaved caspase 8, cleaved PARP, and LC3B (1:1000, Cell Signaling), and β-actin (1:10000, Sigma).

[2] = target: T2, R175H mutant p53 in HCT116 R175H p53 cells (Homo sapiens, UniProt P04637, R175H); test: cycloheximide chase assay; assay type: cell-based; conditions: 100 μM, 24 hours, then cycloheximide
T2 construct: V5 (only from the vector name pLenti6/V5); host or cells: HCT116 p53-/- cells, lentivirus infection, blasticidin-selected pooled clones
Experimental: (§1) As mutant p53 can acquire a gain-of-function activity, targeting mutant p53 for degradation has been explored as a therapeutic strategy. To investigate the capability of CB002 to impact on mutant p53 protein expression, Western blot analysis was used. […] To confirm these findings, a cycloheximide chase assay was performed. Cells were treated with vehicle control or CB002 for a period of 24 hours. Subsequently, 100 μg/mL cycloheximide was added to the wells and protein lysates were collected at different time points between 0-10 hours. […] Referring to FIG. 6, experiments with SW480 cells (Panels A and B) and analysis of DLD-1 colorectal cancer cells (Panel C) are shown. Cells were treated for a 24 hour period with DMSO, CB002 or positive control followed by 100 μg/mL of cycloheximide addition, and protein stability was evaluated in a time course ranging from 0-10 hours. Histone deacetylase inhibitor, SAHA and Hsp90 inhibitor Geldanamycin (1 μM GA) were used as positive controls.
Referring to FIG. 7, CB002 reduced the protein expression of the exogenous R175H mutant in HCT116 p53-null cells and not the HCT116 wild-type p53 cells (Panel A). HCT116 R175H p53 cells were treated for 24 hours with DMSO or CB002 followed by 100 μg/mL cycloheximide addition. Protein stability was evaluated from 0-10 hours (Panel B). […]

[3] = tested on: autophagic vacuoles in DLD-1 cells; test: CYTO-ID autophagy detection kit; assay type: cell-based, human; conditions: 50 μM, 24 hours, versus DMSO
[4] = tested on: cancer (DLD-1, SW480, and RXF393) cell lines; test: CellTiter-Glo cell viability, panel of cancer cell lines (summary); assay type: cell-based; conditions: Homo sapiens; 72 hours
Experimental: Cells were seeded in 96-well plates at a density of 5×10^3 cells per well. 20 μL of CellTiter-Glo® Reagent was added directly to the wells, following the manufacturer's protocol, and bioluminescence signal was determined using an IVIS imaging system.
To begin establishing the potential of CB002 as a candidate therapeutic agent, its therapeutic index was determined by treating cancer (DLD-1, SW480, and RXF393) and normal (WI38 and MRC5) cell lines with concentrations of CB002 ranging from 0-500 μM for a period of 72 hours and assessing cell viability by the CellTiter-Glo® luminescence assay (see, FIG. 2). CB002 has a significant therapeutic index among the cells tested.

[5] = target: T3, mutant p53 in DLD-1 cells (Homo sapiens, UniProt P04637, S241F); test: cycloheximide chase assay; assay type: cell-based; conditions: 24 hours treatment, then 100 μg/mL cycloheximide, 0-10 hours
T3 construct: endogenous in cells; host or cells: DLD-1 colorectal cancer cells
Experimental: as §1

[6] = target: T4, mutant p53 in SW480 cells (Homo sapiens, UniProt P04637, P309S/R273H); test: cycloheximide chase assay; assay type: cell-based; conditions: 24 hours treatment, then 100 μg/mL cycloheximide, 0-10 hours
T4 construct: endogenous in cells; host or cells: SW480 colorectal cancer cells
Experimental: as §1

## Cn1c(=O)c2[nH]c(Nc3ccccc3)nc2n(C)c1=O [CB002, 8-anilino-1,3-dimethyl-3,7-dihydro-1H-purine-2,6-dione]
[1]; 50 and 100 μM, 16 and 24 hours, versus DMSO
  R175H mutant p53 protein expression: decrease in mutant p53 protein expression
[1]; 50 or 100 μM with MDM2 inhibitor Nutlin-3A, 24 hours
  R175H p53 mutant protein expression: still resulted in reduction of R175H p53 mutant protein expression
[1]; co-treatment with chloroquine, 16 and 24 hours
  R175H mutant p53 protein expression: did not rescue R175H mutant p53 protein expression
[1]; with proteasome inhibitor MG132 (5 and 10 μM), 24 hours
  R175H mutant p53 protein expression: appeared to rescue R175H mutant p53 protein expression
[2]
  stability of mutant p53: decreased the stability of mutant p53
[3]
  autophagic vacuole-specific staining: increase in autophagic vacuole-specific staining
[4]
  IC50: 96 to 400 µM
[5]
  mutant p53 stability: did not affect mutant p53 stability
[6]
  mutant p53 stability: did not affect mutant p53 stability
